Results published in patent publication US6924366B2, “Recombinant hexose oxidase, a method of producing same and use of such enzyme” (Bioteknologisk Institut, priority 1995, dated 2005).

Columns and labels:
[1] = biological target: T1, recombinant hexose oxidase from Pichia pastoris (Chondrus crispus, UniProt P93762); test: Substrate specificity of recombinant hexose oxidase (o-dianisidine/peroxidase assay); assay type: biochemical; settings: sugar at a final concentration of 0.1 M; recombinant hexose oxidase expressed in Pichia pastoris
T1 construct: the entire hexose oxidase gene was amplified and isolated from at least three independent PCR amplifications; made in house; host or cells: Pichia pastoris KM71 with plasmid pUPO153 (pPIC3 vector), intracellular
T1 sequence (P93762 4-337 limits assumed): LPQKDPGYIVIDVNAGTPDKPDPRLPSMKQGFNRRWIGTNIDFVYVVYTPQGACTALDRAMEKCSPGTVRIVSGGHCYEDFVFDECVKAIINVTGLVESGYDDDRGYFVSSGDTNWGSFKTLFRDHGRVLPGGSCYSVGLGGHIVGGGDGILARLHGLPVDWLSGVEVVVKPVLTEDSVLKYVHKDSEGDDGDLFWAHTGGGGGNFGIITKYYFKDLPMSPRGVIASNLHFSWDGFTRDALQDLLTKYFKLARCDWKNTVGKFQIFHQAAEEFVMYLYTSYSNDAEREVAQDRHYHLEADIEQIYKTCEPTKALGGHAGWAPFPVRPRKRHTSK
T1 sequence (P93762 338-546 limits assumed): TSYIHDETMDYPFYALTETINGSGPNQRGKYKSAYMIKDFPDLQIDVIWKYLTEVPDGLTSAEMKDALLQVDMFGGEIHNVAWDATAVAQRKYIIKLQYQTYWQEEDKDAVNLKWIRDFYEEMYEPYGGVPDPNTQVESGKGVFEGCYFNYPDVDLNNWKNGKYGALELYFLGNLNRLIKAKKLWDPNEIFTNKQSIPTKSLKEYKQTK
Procedure: (§1) The procedure used was essentially as described by Sullivan and Ikawa, 1973. This assay is based on the principle that the hydrogen peroxide formed in the oxidation of the sugar in the presence of peroxidase reacts with the chromogenic substance, o-dianisidine to form a dye with absorbance at 402 nm.
(§2) The assay mixture consisted of 1-40 μl of enzyme sample and 850 μl of an assay solution containing 370 μl of 0.1 M sodium phosphate buffer, pH 7.0; 462 μl of 0.1 M D-glucose in 0.1 M sodium phosphate buffer, pH 7.0; 9 μl of horse radish peroxidase, 0.1 mg/ml in water (Sigma Chemicals, cat. no. P 6782 or Boehringer Mannheim, cat. no. 814 393); and 9 μl of o-dianisidine.2HCl, 3.0 mg/ml in water (3,3′-dimethoxybenzidine, Sigma Chemicals). After incubation at room temperature for 15 or 30 minutes the assay was stopped by addition of one drop of 37% HCl (Merck, p.a.). Samples of 100 μl were transferred from the assay tubes to the wells of a microtiter plate (NUNC, Denmark) and the absorbance at 410 nm was read on a Titertek Multiskan II PLUS plate reader (Labsystems/Flow Laboratories, Finland). To ensure that the observed activity was due to hexose oxidase—and not glucose oxidase—the assay was occasionally performed with D-galactose as the substrate instead of D-glucose.
(§3) The substrate specificity of recombinant hexose oxidase from Pichia pastoris and native hexose oxidase from Chondrus crispus was compared using a number of sugars at a final concentration of 0.1 M in the assay described above.

[2] = biological target: T2, native hexose oxidase from Chondrus crispus (Chondrus crispus, UniProt P93762); test: Substrate specificity of native hexose oxidase (o-dianisidine/peroxidase assay); assay type: biochemical; settings: sugar at a final concentration of 0.1 M
T2 construct: the native form isolated from Chondrus crispus; from tissue; host or cells: Chondrus crispus (red alga) fronds
T2 sequence (P93762 4-337 limits assumed): T1 sequence (P93762 4-337 limits assumed)
T2 sequence (P93762 338-546 limits assumed): T1 sequence (P93762 338-546 limits assumed)
Procedure: as §1, §2, §3

[3] = biological target: T3, native hexose oxidase from Chondrus crispus (Chondrus crispus, UniProt P93762); settings: literature data; cited from earlier work
T3 sequence (P93762 1-546): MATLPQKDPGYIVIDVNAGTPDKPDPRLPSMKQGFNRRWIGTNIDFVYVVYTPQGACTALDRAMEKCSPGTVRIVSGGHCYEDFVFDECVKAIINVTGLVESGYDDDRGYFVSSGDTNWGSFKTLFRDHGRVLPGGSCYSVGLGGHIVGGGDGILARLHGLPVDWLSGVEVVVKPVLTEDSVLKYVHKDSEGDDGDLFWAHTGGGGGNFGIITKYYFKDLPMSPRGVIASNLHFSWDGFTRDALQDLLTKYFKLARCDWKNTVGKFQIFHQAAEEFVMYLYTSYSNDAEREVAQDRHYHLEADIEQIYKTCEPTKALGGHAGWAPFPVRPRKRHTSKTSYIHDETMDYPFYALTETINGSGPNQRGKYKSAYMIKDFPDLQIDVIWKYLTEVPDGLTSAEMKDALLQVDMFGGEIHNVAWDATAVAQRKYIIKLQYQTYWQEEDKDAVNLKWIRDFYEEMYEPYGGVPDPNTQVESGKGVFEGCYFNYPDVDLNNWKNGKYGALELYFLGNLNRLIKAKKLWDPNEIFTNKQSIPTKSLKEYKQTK

[4] = biological target: T1, recombinant hexose oxidase from Pichia pastoris; test: Inhibition of recombinant hexose oxidase by sodium diethyldithiocarbamate; assay type: biochemical; settings: read-out: Inhibition (%), Recombinant enzyme
Procedure: as §1
as §2, with “D-glucose. […]” for “D-glucose.”

[5] = biological target: T2, native hexose oxidase from Chondrus crispus; test: Inhibition of native hexose oxidase by sodium diethyldithiocarbamate; assay type: biochemical; settings: read-out: Inhibition (%), Native enzyme
Procedure: as §1
as §2, with “D-glucose. […]” for “D-glucose.”

[6] = biological target: T4, hexose oxidase from Chondrus crispus (Chondrus crispus, UniProt P93762); settings: reported by Sullivan and Ikawa (1973); cited from earlier work
T4 sequence (P93762 1-546): T3 sequence (P93762 1-546)

Compound: O=C[C@H](O)[C@@H](O)[C@H](O[C@@H]1O[C@H](CO)[C@@H](O)[C@H](O)[C@H]1O)[C@H](O)CO [Cellobiose]
- Relative rate, recombinant enzyme [1]: 51
- Relative rate, native enzyme, this work [2]: 33
- Relative rate, native enzyme, Sullivan and Ikawa, 1973 [3]: 32

Compound: O=C[C@H](O)[C@@H](O)[C@@H](O)[C@H](O)CO [D-Galactose]
- Relative rate, recombinant enzyme [1]: 75
- Relative rate, native enzyme, this work [2]: 75
- Relative rate, native enzyme, Sullivan and Ikawa, 1973 [3]: 82

Compound: O=C[C@H](O)[C@@H](O)[C@H](O)[C@H](O)CO [D-Glucose]
- Relative rate, recombinant enzyme [1]: 100
- Relative rate, native enzyme, this work [2]: 100
- Relative rate, native enzyme, Sullivan and Ikawa, 1973 [3]: 100

Compound: OC[C@H]1O[C@@H](O[C@H]2[C@H](O)[C@@H](O)C(O)O[C@@H]2CO)[C@H](O)[C@@H](O)[C@H]1O (some centres unmarked) [Lactose]
- Relative rate, recombinant enzyme [1]: 38
- Relative rate, native enzyme, this work [2]: 25
- Relative rate, native enzyme, Sullivan and Ikawa, 1973 [3]: 22

Compound: OC[C@H]1O[C@H](O[C@H]2[C@H](O)[C@@H](O)[C@H](O)O[C@@H]2CO)[C@H](O)[C@@H](O)[C@@H]1O [Maltose]
- Relative rate, recombinant enzyme [1]: 57
- Relative rate, native enzyme, this work [2]: 37
- Relative rate, native enzyme, Sullivan and Ikawa, 1973 [3]: 40

Compound: CCN(CC)C(=S)[S-].[Na+] [sodium diethyldithiocarbamate]
- inhibition at 10 µM ([4]; concentration of inhibitor 0.01 mM): 39%
- inhibition at 100 µM ([4]; concentration of inhibitor 0.1 mM): 96%
- inhibition at 10 µM [5]: 41%
- inhibition at 100 µM [5]: 95%
- Inhibition of hexose oxidase (in words) [6]: strongly inhibited
